PMC12042122, “The GntR/VanR transcription regulator AlkR represses AlkB2 monooxygenase expression and regulates n‐alkane degradation in Pseudomonas aeruginosa SJTD‐1” (mLife, 2025)

Legend:
AlkR = molecular target: T1, AlkR (Pseudomonas aeruginosa, UniProt Q9I3I7); assay: EMSA, release of AlkR from alkB2 promoter DNA; format: binding; settings: AlkR 5.8 × 10^-7 M, P3 DNA fragment 5 × 10^-7 M, pH 7.5, 37 °C; not an IC50
T1 construct: gene PA1526
T1 sequence (Q9I3I7 1-219): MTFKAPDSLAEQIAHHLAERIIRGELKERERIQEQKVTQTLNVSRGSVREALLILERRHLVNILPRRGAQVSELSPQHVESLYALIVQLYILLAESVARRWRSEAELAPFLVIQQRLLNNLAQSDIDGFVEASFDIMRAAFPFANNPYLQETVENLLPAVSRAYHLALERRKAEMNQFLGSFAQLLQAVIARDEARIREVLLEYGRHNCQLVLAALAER

[1] = molecular target: AlkR, GntR/VanR transcription regulator of Pseudomonas aeruginosa SJTD-1 (Pseudomonas aeruginosa SJTD-1); assay: SEC; size exclusion chromatography of purified recombinant AlkR; conditions not given
[2] = molecular target: AlkR, GntR/VanR transcription regulator of Pseudomonas aeruginosa SJTD-1 (Pseudomonas aeruginosa SJTD-1); assay: cross-linking; purified recombinant AlkR treated with sulfo-EGS, detected by 8% native PAGE

| stoichiometry N [1] | stoichiometry N [2] | Molecule | concentration for effective dissociation of the AlkR/DNA complex (AlkR) |
| --- | --- | --- | --- |
|  |  | CCCCCCCC/C=C\CCCCCCCC(=O)SCCNC(=O)CCNC(=O)[C@H](O)C(C)(C)COP(=O)(O)OP(=O)(O)OC[C@H]1O[C@@H](n2cnc3c(N)ncnc32)[C@H](O)[C@@H]1OP(=O)(O)O [C18-CoA, oleyl coenzyme A] | ~ 80 μM |
|  |  | CCCCCCCCCCCCCCCC(=O)SCCNC(=O)CCNC(=O)[C@H](O)C(C)(C)COP(=O)(O)OP(=O)(O)OC[C@H]1O[C@@H](n2cnc3c(N)ncnc32)[C@H](O)[C@@H]1OP(=O)(O)O [C16-CoA, palmitoyl coenzyme A] | ~ 150 μM |
| 2 | 2 | AlkR, GntR/VanR transcription regulator of Pseudomonas aeruginosa SJTD-1 (natural protein) |  |
